Experimental data reported in patent US7534898B2, “Process for producing monatin or salt thereof” (Ajinomoto Co., Inc., priority 2004, dated 2009).

Legend:
[1] = cited from earlier work; for intensity as a sweetener (strength of sweetness): comparison among the four optical isomers of monatin, Patent Document 5
[2] = solubility in ethanol (crystallization with ethanol as poor solvent); format: physicochemical; conditions: compared with (2R,4R) monatin
Text: It is also possible to efficiently separate the steric isomers by utilizing the difference in solubility of (2S,4R) monatin and (2R,4R) monatin or of (2R,4S) monatin and (2S,4S) monatin in ethanol. […] Therefore, before crystallization of (2R,4R) monatin (salt), (2S,4R) monatin is firstly crystallized and the resulting crystals are removed. […] In case crystals of (2S,4R) monatin are previously removed by means of crystallization, it is possible to efficiently remove (2S,4R) monatin from the reaction solution when the crystallizing temperature is set at as high as about 70 to 80° C. and the crystals prepared by the crystallization are preferably filtered when they are still at high temperature. In addition, the crystals of (2R,4R) monatin (salt) prepared may be recrystallized the same as above for making the purity higher. The above is also the same in the case of (2R,4S) monatin and (2S,4S) monatin.

solubility in ethanol [2] | SMILES | intensity as a sweetener (strength of sweetness) [1] | sweet taste relative to sucrose ([1]; compared with sucrose, Patent Document 1)
– | N[C@@H](C[C@@](O)(Cc1c[nH]c2ccccc12)C(=O)O)C(=O)O (stereo in doubt) [(2R,4S) monatin, 4-hydroxy-4-(3-indolylmethyl)-2-aminoglutaric acid] | far better in terms of intensity as a sweetener | –
– | N[C@H](C[C@@](O)(Cc1c[nH]c2ccccc12)C(=O)O)C(=O)O (stereo in doubt) [(2R,4R) monatin, 4-hydroxy-4-(3-indolylmethyl)-2-aminoglutaric acid] | far better in terms of intensity as a sweetener | –
low as compared with (2R,4R) monatin | N[C@@H](C[C@@](O)(Cc1c[nH]c2ccccc12)C(=O)O)C(=O)O (stereo in doubt) [(2S,4R) monatin, 4-hydroxy-4-(3-indolylmethyl)-2-aminoglutaric acid] | lower strength of sweetness | –
– | N[C@@H](C[C@@](O)(Cc1c[nH]c2ccccc12)C(=O)O)C(=O)O (stereo in doubt) [(2S,4S) monatin, 4-hydroxy-4-(3-indolylmethyl)-2-aminoglutaric acid] | lower strength of sweetness | several hundred times as sweet as sucrose
